pIC50: −log10 of the molar value.
Key:
[1] = tested on: Ishikawa cells; experiment: Ishikawa cell alkaline phosphatase assay; format: cell-based, human; conditions: for ED50 of estrogenic activity by the alkaline phosphatase method: Ishikawa cells, 48 h treatment, reference standards; for % Activation (Ishikawa alkaline phosphatase) with 1 nM 17β-estradiol: compound + 1 nM 17β-estradiol (antiestrogen test); for % Activation (Ishikawa alkaline phosphatase): compound alone, percent of response related to 1 nM 17β-estradiol
Procedure: Cells were treated for 48 h prior to assay. […] Sample population for at each dose was n=8. […] Plates are placed at -80° C. for a minimum of […]. Plates are thawed at 37° C. followed by the addition of 150 μL of 0.1 M Tris-HCl, pH 9.8, containing 4 mM para-nitrophenylphosphate (pNPP) to each well (final concentration, 3 mM pNPP). Absorbance and slope calculations were made using the […] Application program (Bio-Tek Instruments, Inc., Winooski, Vt.). […] The four listed in the following were used as reference standards: A description of these methods is described by Holinka, […]., Kuramoto, H. and Gurpide, E. (1986) Effects of steroid hormones and antisteroids on alkaline phosphatase activity in human endometrial cancer cells (Ishikawa Line). Cancer Research, 46:2771-2774, and by […]. and […] simple and sensitive microtiter plate estrogen bioassay based on stimulation alkaline phosphatase in Ishikawa cells; […] Endocrinology, 6:2757-2762.

[2] = molecular target: T1, estrogen receptor (Homo sapiens (Human), UniProt P03372); experiment: 2×VIT ERE infection luciferase assay; format: cell-based; conditions: for Infection Luciferase Activity, 1 uM + 17β estradiol: 1 uM compound + 1 nM 17β-estradiol (estrogen antagonism); for Infection Luciferase Activity, 1 uM: 1 uM compound alone, percentage of activity as compared to 17β-estradiol
T1 sequence (P03372 whole entry): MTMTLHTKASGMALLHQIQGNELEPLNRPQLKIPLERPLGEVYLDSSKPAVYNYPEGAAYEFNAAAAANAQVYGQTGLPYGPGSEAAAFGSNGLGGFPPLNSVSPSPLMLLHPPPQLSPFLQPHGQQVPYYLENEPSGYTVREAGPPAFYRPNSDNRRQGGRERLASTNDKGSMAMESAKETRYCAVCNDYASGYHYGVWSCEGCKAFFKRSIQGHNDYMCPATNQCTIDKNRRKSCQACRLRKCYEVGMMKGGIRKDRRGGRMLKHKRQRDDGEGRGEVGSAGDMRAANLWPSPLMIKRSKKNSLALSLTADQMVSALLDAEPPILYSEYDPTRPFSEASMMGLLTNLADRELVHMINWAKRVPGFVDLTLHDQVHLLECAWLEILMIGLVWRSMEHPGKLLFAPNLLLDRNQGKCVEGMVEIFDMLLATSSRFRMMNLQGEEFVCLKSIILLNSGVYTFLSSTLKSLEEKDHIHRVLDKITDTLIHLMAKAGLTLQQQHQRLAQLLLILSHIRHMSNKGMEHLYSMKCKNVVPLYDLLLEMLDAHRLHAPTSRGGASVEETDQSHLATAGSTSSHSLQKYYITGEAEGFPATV
Procedure: Chinese Hamster Ovary cells (CHO) which had been stably transfected with the human estrogen receptor were maintained in DMEM+10% fetal bovine serum (FBS). 48 h prior to treatment the growth medium was replaced with DMEM lacking phenol red+10% dextran coated charcoal stripped FBS (treatment medium). Cells were plated at a density of 5000 cells/well in 96-well plates containing 200 μL of medium/well.
Reporter DNA (Promega plasmid pGL2 containing two tandem copies of the vitellogenin ERE in front of the minimal thymidine kinase promoter driving the luciferase gene) was combined with the B-galactosidase expression plasmid pCH110 (Pharmacia) and carrier DNA (pTZ18U) in the following ratio:
20 uL of this mixture was added to each well of cells and remained on the cells for 16 h. […] Each treatment condition was performed on 8 wells (n=8) which were incubated for 24 h prior to the luciferase assay.
After removing the PBS, 25 uL of Promega lysis buffer was added to each well and allowed to stand at room temperature for 15 min, followed by 15 min at −80° C. and 15 min at 37° C. 20 uL of lysate was transferred to an opaque 96 well plate for luciferase activity evaluation and the remaining lysate (5 uL) was used for the B-galactosidase activity evaluation (normalize transfection). The luciferan substrate (Promega) was added in 100 uL aliquots to each well automatically by the luminometer and the light produced (relative light units) was read 10 seconds after addition.
To the remaining 5 uL of lysate 45 uL of PBS was added. Then 50 uL of Promega B-galactosidase 2× assay buffer was added, mixed well and incubated at 37° C. for 1 hour. A plate containing a standard curve (0.1 to 1.5 milliunits in triplicate) was set up for each experimental run. The plates were analyzed on a Molecular Devices spectrophotometric plate reader at 410 nm. The optical densities for the unknown were converted to milliunits of activity by mathematical extrapolation from the standard curve.
The luciferase data was generated as relative light units (RLUs) accumulated during a 10 second measurement and automatically transferred to a JMP (SAS Inc) file where background RLUs were subtracted. The B-galactosidase values were automatically imported into the file and these values were divided into the RLUs to normalize the data. The mean and standard deviations were determined from a n=8 for each treatment. […] These techniques are described by Tzukerman, M. T., Esty, A., Santiso-Mere, D., Danielian, P., Parker, M. G., Stein, R. B., Pike, J. W. and McDonnel, D. P. (1994). Human estrogen receptor transactivational capacity was determined by both cellular and promoter context and mediated by two functionally distinct intramolecular regions (see Molecular Endocrinology, 8:21-30).

[3] = tested on: Immature Sprague-Dawley rats; experiment: Rat uterotrophic/antiuterotrophic bioassay; format: in vivo; conditions: immature female rats, daily ip; for Uterine wt mg 100 uG cmpd + 1uG 17β-estradiol: 100 uG compound + 1 uG 17β-estradiol; for Uterine wt mg 100 uG cmpd: 100 uG compound, wet weight
Procedure: The estrogenic and antiestrogenic properties of the compounds were determined in an immature rat uterotrophic assay (4 day) that (as described previously by L. J. Black and R. L. Goode, Life Sciences, 26, 1453 (1980)). Immature Sprague-Dawley rats (female, 18 days old) were tested in groups of six. […] On day 4 the animals were sacrificed by CO2 asphyxiation and their uteri were removed and stripped of excess lipid, any fluid removed and the wet weight determined. A small section of one horn was submitted for histology and the remainder used to isolate total RNA in order to evaluate complement component 3 gene expression.

[4] = molecular target: T1, estrogen receptor; experiment: In vitro estrogen receptor binding assay; conditions: competition with [3H]17β-estradiol, cytosol of CHO cells overexpressing the estrogen receptor; for pIC50: read-out: Receptor Binding IC50's
Procedure: CHO cells overexpressing the estrogen receptor were grown in 150 mm^2 dishes in DMEM+10% dextran coated charcoal, stripped fetal bovine serum. The plates were washed twice with PBS and once with 10 mM Tris-HCl, pH 7.4, 1 mM EDTA. Cells were harvested by scraping the surface and then the cell suspension was placed on ice. Cells were disrupted with a hand-held motorized tissue grinder using two, 10-second bursts. […] The cytosol was then frozen and stored at −80° C. Protein concentration of the cytosol was estimated using the BCA assay with reference standard protein.
100 uG/100 uL of the receptor preparation was aliquoted per well. […] The plate was incubated at room temperature for 2.5 h. […] 200 uL of the supernatant solution was then removed for scintillation counting. Samples were counted to 2% or 10 minutes, whichever occurs first.
Counts per minute (CPM) of radioactivity were automatically converted to disintegrated per minute (DPM) by the Beckman LS 7500 Scintillation Counter using a set of quenched standards to generate a H No. for each sample.
For the generation of IC50 curves, % binding is plotted vs compound. […] For a description of these methods, see Hulme, E. C., ed. […] Receptor-Ligand Interactions: A Practical Approach. IRL Press, New York. (see especially chapter 8).

## C[C@]12CC[C@@H]3c4ccc(O)cc4CC[C@H]3[C@@H]1CC[C@H]2O [17α-estradiol]
[1]
  ED50 of estrogenic activity by the alkaline phosphatase method: 1.42 nM

## Cc1c(-c2ccccc2)n(Cc2ccc(OCCN3CCCCC3)cc2)c2ccccc12 [No. 85, 4-{3-Methyl-1-[4-(2-piperidin-1-yl-ethoxy)-benzyl]-1H-indole}]
[2]
  Infection Luciferase Activity, 1 uM + 17β estradiol: 43%
  Infection Luciferase Activity, 1 uM: −2%
[3]
  Uterine wt mg 100 uG cmpd + 1uG 17β-estradiol: 92.4 mg
  Uterine wt mg 100 uG cmpd: 41.1 mg
[4]
  pIC50: 6.35

## Cc1c(-c2ccc(O)cc2)n(Cc2ccc(OCCN3CCCCCC3)cc2)c2ccc(O)cc12 [No. 98, 1-[4-(2-Azepan-1-yl-ethoxy)-benzyl]-2-(4-hydroxy-phenyl)-3-methyl-1H-indol-5-ol]
[3]
  Uterine wt mg 100 uG cmpd + 1uG 17β-estradiol: 27.9 mg
  Uterine wt mg 100 uG cmpd: 29.4 mg
[1]
  % Activation (Ishikawa alkaline phosphatase) with 1 nM 17β-estradiol: 1% activity (1% with 1 nM 17β-estradiol)
  % Activation (Ishikawa alkaline phosphatase): 1% activity (1% with 1 nM 17β-estradiol)

## Cc1c(-c2ccc(O)cc2)n(Cc2ccc(OCC[N+](C)(C)C)cc2)c2ccc(O)cc12.[I-] [No. 106, 2-(4-Hydroxy-phenyl)-3-methyl-1-[4-(2-dimethyl-1-yl-ethoxy)-benzyl]-1H-indol-5-ol methiodide]
[2]
  Infection Luciferase Activity, 1 uM + 17β estradiol: 81%
  Infection Luciferase Activity, 1 uM: 10%
[4]
  pIC50: 7.00

## Cc1c(-c2ccc3c(c2)OCO3)n(Cc2ccc(OCCN3CCCCC3)cc2)c2ccc(O)cc12 [No. 119, 2-Benzo[1.3]dioxol-5-yl-3-methyl-1-[4-(2-piperidin-1-yl-ethoxy)-benzyl]-1H-indol-5-ol]
[2]
  Infection Luciferase Activity, 1 uM + 17β estradiol: −1%
  Infection Luciferase Activity, 1 uM: −1%
[4]
  pIC50: 7.15

## Cc1c(-c2ccc(OC(C)C)cc2)n(Cc2ccc(OCCN3CCCCC3)cc2)c2ccc(O)cc12 [No. 120, 2-(4-Isopropoxy-phenyl)-3-methyl-1-[4-(2-1-yl-ethoxy)-benzyl]-1H-indol-5-ol]
[2]
  Infection Luciferase Activity, 1 uM + 17β estradiol: 1%
  Infection Luciferase Activity, 1 uM: −1%
[4]
  pIC50: 7.00

## Cc1c(-c2ccc(OC3CCCC3)cc2)n(Cc2ccc(OCCN3CCCCC3)cc2)c2ccc(O)cc12 [No. 122, 2-(4-Cyclopenyloxy-phenyl)-3-methyl-1-[4-(2-piperidin-1-yl-ethoxy)-benzyl]-1H-indol-5-ol]
[2]
  Infection Luciferase Activity, 1 uM + 17β estradiol: 5%
  Infection Luciferase Activity, 1 uM: 1%
[3]
  Uterine wt mg 100 uG cmpd + 1uG 17β-estradiol: 38.7 mg
  Uterine wt mg 100 uG cmpd: 46.7 mg
[4]
  pIC50: 7.10

## Cc1c(-c2ccc(C(F)(F)F)cc2)n(Cc2ccc(OCCN3CCCCC3)cc2)c2ccc(O)cc12 [No. 123, 3-Methyl-1-[4-(2-piperidin-1-yl-ethoxy)-benzyl]-2-(4-trifluoromethyl-phenyl)-1H-indol-5-ol]
[2]
  Infection Luciferase Activity, 1 uM + 17β estradiol: 1%
  Infection Luciferase Activity, 1 uM: −1%
[3]
  Uterine wt mg 100 uG cmpd + 1uG 17β-estradiol: 61.4 mg
  Uterine wt mg 100 uG cmpd: 39.2 mg

## N#Cc1c(-c2ccc(O)cc2)n(Cc2ccc(OCCN3CCCCC3)cc2)c2ccc(O)cc12 [No. 138, 5-Hydroxy-2-(4-Hydroxy-phenyl)-1-[4-(2-piperidin-1-yl-ethoxy)-benzyl]-1H-indole-3-carbonitrile]
[2]
  Infection Luciferase Activity, 1 uM + 17β estradiol: −1%
  Infection Luciferase Activity, 1 uM: −2%
[3]
  Uterine wt mg 100 uG cmpd + 1uG 17β-estradiol: 37.9 mg
  Uterine wt mg 100 uG cmpd: 28.4 mg

## Cc1c(-c2ccc(OC(=O)C(C)(C)C)cc2)n(Cc2ccc(OCCN3CCCCC3)cc2)c2ccc(OC(=O)C(C)(C)C)cc12 [No. 162, Di-pivalate ester of 2-(4-Hydroxy-phenyl)-3-methyl-1-[4-(2-piperidin-1-yl-ethoxy)-benzyl]-1H-indol-5-ol]
[2]
  Infection Luciferase Activity, 1 uM + 17β estradiol: −13%
  Infection Luciferase Activity, 1 uM: −14%
[4]
  Receptor Binding IC50's: Does not Bind

## COc1cc(Cn2c(-c3ccc(O)cc3)c(C)c3cc(O)ccc32)ccc1OCCN1CCCCCC1 [No. 168, 2-(4-Hydroxy-phenyl)-1-[3-methoxy-4-(2-azepan-1-yl-ethoxy)-benzyl]-3-methyl-1H-indol-5-ol]
[3]
  Uterine wt mg 100 uG cmpd + 1uG 17β-estradiol: 81.7 mg
  Uterine wt mg 100 uG cmpd: 43.2 mg

## C[C@]12CC[C@@H]3c4ccc(O)cc4CC[C@H]3[C@@H]1C[C@@H](O)[C@@H]2O [estriol]
[1]
  ED50 of estrogenic activity by the alkaline phosphatase method: 0.13 nM

## C[C@]12CC[C@@H]3c4ccc(O)cc4CC[C@H]3[C@@H]1CCC2=O [estrone]
[1]
  ED50 of estrogenic activity by the alkaline phosphatase method: 0.36 nM

## O=C(c1ccc(OCCN2CCCCC2)cc1)c1c(-c2ccc(O)cc2)sc2cc(O)ccc12 [raloxifene]
[1]
  % Activation (Ishikawa alkaline phosphatase) with 1 nM 17β-estradiol: 5% activity (5% with 1 nM 17β-estradiol)
  % Activation (Ishikawa alkaline phosphatase): 5% activity (5% with 1 nM 17β-estradiol)

## CC/C(=C(\c1ccccc1)c1ccc(OCCN(C)C)cc1)c1ccccc1 [tamoxifen]
[3]
  Uterine wt mg 100 uG cmpd: 71.4 mg
